Values of other authors, collected in patent US20230330126A1, “MODIFIED ADENOSINE NUCLEOSIDE FOR USE IN THE TREATMENT OF VIRAL INFECTIONS” (priority 2020, published 2023).

Experiments:
[1] = animal and human studies

| SMILES | efficacy compared with theophylline [1] | tolerability profile compared with theophylline [1] | half-life [h] |
| --- | --- | --- | --- |
| Cn1c(=O)c2c(ncn2CC2OCCO2)n(C)c1=O [doxofylline, Doxofylline] | comparable efficacy to that of theophylline | better tolerability profile, with significantly fewer side effects |  |
| O=c1[nH]cnc2c1ncn2[C@@H]1O[C@H](CO)[C@@H](O)[C@H]1O [inosine, Inosine] |  |  | 15 |
